Experimental data published in ChEMBL document CHEMBL4507268 (2021).

Columns and labels:
Details in all cases: Compound concentration 1.0 uM
[1] = target: Serine/threonine-protein kinase NIM1 (Homo sapiens) (UniProt Q8IY84)
[2] = target: Mitogen-activated protein kinase 14 (Homo sapiens) (UniProt Q16539)
[3] = target: T1, Phosphatidylinositol 3-kinase C2 domain-containing subunit gamma (Homo sapiens) (UniProt O75747)
T1 sequence (whole entry): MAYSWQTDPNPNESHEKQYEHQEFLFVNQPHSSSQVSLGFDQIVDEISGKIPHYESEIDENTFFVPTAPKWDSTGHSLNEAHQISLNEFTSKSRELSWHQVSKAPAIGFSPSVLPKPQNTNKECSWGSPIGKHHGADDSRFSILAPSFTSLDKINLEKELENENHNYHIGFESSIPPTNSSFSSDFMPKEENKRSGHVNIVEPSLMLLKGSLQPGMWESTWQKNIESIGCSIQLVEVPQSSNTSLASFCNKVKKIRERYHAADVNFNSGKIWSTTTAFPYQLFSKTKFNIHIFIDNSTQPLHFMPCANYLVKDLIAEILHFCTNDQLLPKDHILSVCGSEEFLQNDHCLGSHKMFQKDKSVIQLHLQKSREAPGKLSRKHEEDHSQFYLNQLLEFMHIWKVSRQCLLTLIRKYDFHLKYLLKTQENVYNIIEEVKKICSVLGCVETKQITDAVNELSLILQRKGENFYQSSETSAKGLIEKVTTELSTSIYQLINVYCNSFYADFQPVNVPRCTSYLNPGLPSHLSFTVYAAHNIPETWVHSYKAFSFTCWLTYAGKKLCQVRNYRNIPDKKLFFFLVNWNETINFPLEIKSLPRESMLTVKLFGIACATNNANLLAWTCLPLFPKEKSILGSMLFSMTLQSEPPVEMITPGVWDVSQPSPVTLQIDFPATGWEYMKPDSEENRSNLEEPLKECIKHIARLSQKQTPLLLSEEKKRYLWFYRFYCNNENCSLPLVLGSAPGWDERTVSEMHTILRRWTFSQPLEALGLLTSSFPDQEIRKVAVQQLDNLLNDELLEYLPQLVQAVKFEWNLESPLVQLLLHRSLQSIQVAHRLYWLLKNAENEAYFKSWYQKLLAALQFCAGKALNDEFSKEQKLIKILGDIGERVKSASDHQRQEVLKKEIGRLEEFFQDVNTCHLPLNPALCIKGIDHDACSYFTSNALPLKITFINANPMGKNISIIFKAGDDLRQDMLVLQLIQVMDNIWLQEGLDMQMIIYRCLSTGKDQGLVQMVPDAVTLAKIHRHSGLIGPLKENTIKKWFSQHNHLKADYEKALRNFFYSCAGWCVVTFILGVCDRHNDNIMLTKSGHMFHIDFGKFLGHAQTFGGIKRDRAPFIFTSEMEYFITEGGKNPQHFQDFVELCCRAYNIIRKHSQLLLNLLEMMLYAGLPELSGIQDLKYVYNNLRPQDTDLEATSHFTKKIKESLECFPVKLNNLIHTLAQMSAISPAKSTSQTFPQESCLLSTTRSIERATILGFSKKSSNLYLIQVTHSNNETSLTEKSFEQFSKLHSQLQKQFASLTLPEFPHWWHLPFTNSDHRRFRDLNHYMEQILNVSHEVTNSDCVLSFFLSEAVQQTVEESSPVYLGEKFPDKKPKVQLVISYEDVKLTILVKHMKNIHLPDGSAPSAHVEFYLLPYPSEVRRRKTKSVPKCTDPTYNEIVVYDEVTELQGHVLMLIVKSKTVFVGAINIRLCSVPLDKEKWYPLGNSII

[4] = target: Serine/threonine-protein kinase PAK 5 (Homo sapiens) (UniProt Q9P286)
Sequence of Serine/threonine-protein kinase PAK 5 (Homo sapiens) (Q9P286 whole entry, looked up): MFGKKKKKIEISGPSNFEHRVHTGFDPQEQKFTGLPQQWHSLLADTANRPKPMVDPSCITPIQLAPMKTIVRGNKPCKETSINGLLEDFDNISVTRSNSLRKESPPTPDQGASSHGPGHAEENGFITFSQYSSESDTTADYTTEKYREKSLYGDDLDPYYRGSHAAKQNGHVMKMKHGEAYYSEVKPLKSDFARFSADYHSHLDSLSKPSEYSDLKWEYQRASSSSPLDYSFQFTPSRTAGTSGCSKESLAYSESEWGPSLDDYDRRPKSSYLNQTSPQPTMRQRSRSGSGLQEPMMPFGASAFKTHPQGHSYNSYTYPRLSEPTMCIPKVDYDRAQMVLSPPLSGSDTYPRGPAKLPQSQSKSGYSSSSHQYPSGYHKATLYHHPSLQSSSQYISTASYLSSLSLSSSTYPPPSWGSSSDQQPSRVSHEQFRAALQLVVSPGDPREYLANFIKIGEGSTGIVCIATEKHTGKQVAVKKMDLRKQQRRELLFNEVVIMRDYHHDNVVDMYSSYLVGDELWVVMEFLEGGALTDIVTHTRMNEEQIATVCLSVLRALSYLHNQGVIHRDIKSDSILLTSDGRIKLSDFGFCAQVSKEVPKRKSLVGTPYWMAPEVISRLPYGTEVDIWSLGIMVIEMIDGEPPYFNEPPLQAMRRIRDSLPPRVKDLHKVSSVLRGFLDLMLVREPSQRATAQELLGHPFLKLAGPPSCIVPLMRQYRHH

[5] = target: Tyrosine-protein kinase ABL2 (Homo sapiens) (UniProt P42684)
[6] = target: T2, Testis-specific serine/threonine-protein kinase 3 (Homo sapiens) (UniProt Q96PN8)
T2 sequence (whole entry): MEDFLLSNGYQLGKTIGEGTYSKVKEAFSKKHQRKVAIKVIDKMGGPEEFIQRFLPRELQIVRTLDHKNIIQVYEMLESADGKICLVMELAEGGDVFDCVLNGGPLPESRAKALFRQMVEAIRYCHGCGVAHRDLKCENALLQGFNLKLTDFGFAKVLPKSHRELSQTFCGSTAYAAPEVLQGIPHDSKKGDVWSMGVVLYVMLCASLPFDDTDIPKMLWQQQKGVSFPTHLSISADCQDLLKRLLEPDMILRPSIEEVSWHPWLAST

[7] = target: T3, Rhodopsin kinase GRK7 (Homo sapiens) (UniProt Q8WTQ7)
T3 sequence (whole entry): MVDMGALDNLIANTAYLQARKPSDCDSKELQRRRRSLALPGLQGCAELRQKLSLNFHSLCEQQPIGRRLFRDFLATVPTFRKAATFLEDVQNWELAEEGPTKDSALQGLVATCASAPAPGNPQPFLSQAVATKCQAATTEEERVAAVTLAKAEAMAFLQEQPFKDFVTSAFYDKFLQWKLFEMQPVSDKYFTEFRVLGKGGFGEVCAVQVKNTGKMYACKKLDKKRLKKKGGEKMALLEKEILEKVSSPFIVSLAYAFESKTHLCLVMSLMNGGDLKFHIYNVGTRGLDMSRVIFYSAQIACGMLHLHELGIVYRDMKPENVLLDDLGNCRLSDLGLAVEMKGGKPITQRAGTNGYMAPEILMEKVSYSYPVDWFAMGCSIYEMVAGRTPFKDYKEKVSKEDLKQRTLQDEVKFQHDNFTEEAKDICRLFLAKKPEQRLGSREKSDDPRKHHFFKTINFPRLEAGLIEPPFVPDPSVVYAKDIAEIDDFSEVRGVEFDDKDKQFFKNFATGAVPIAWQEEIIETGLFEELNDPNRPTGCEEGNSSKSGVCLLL

[8] = target: Aurora kinase B (Homo sapiens) (UniProt Q96GD4)
Sequence of Aurora kinase B (Homo sapiens) (Q96GD4 whole entry): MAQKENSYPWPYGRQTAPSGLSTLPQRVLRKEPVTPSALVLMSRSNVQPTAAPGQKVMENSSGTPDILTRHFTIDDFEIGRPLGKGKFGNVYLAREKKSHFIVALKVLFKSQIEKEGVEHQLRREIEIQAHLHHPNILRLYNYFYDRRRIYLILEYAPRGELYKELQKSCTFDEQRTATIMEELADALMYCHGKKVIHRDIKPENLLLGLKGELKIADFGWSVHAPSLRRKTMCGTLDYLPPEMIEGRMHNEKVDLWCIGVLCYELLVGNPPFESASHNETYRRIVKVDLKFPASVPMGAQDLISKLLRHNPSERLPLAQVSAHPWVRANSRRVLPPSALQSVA

[9] = target: Mitogen-activated protein kinase 8 (Homo sapiens) (UniProt P45983)
Sequence of Mitogen-activated protein kinase 8 (Homo sapiens) (P45983 whole entry): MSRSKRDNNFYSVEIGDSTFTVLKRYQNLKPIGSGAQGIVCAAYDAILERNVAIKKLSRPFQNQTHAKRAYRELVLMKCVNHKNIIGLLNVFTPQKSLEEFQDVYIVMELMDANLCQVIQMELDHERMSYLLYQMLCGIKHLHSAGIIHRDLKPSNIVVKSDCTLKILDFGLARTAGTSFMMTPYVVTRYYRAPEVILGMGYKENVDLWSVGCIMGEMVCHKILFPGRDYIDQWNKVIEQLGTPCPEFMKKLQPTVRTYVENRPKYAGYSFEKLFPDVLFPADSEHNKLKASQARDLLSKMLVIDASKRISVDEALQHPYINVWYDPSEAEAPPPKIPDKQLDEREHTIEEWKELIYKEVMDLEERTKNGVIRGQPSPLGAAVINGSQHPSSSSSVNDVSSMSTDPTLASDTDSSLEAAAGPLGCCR

[10] = target: Transcription initiation factor TFIID subunit 1-like (Homo sapiens) (UniProt Q8IZX4)
[11] = target: Serine/threonine-protein kinase 38-like (Homo sapiens) (UniProt Q9Y2H1)
Sequence of Serine/threonine-protein kinase 38-like (Homo sapiens) (Q9Y2H1 2-464 limits assumed): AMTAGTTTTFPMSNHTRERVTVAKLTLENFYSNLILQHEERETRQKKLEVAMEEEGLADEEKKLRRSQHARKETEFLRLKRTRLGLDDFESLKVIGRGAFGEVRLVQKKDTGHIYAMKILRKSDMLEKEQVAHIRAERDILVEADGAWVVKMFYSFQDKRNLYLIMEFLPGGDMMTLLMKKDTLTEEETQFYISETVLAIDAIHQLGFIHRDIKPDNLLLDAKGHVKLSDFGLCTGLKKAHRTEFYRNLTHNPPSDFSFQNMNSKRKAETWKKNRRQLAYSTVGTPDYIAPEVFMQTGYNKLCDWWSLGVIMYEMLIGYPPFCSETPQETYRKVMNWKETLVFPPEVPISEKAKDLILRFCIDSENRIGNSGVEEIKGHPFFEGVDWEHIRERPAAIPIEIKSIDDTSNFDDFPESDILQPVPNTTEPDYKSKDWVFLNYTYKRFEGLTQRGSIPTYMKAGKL

[12] = target: Tribbles homolog 2 (Homo sapiens) (UniProt Q92519)
Sequence of Tribbles homolog 2 (Homo sapiens) (Q92519 whole entry, canonical isoform): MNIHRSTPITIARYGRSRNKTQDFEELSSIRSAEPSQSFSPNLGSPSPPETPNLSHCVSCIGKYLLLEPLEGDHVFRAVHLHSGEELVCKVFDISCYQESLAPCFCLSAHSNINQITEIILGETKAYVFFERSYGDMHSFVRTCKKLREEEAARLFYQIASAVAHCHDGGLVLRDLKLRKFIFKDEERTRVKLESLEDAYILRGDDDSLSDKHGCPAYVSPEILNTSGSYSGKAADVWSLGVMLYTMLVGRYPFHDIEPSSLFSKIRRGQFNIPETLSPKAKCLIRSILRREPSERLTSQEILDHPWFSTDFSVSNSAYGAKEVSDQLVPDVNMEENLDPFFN

[13] = target: Casein kinase I isoform delta (Homo sapiens) (UniProt P48730)
Sequence of Casein kinase I isoform delta (Homo sapiens) (P48730 whole entry, looked up, canonical isoform): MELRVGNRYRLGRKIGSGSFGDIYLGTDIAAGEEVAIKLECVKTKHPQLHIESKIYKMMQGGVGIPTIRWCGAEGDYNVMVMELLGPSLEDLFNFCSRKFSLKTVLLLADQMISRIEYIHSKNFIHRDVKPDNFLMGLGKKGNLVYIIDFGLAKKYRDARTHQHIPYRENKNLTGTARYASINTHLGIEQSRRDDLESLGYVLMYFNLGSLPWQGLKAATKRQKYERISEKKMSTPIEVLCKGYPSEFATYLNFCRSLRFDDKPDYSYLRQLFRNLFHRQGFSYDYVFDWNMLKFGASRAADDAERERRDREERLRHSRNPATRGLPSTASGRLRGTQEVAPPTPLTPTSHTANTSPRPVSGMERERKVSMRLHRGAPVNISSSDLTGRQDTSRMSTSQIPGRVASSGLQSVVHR

[14] = target: Vascular endothelial growth factor receptor 3 (Homo sapiens) (UniProt P35916)
Sequence of Vascular endothelial growth factor receptor 3 (Homo sapiens) (P35916 whole entry): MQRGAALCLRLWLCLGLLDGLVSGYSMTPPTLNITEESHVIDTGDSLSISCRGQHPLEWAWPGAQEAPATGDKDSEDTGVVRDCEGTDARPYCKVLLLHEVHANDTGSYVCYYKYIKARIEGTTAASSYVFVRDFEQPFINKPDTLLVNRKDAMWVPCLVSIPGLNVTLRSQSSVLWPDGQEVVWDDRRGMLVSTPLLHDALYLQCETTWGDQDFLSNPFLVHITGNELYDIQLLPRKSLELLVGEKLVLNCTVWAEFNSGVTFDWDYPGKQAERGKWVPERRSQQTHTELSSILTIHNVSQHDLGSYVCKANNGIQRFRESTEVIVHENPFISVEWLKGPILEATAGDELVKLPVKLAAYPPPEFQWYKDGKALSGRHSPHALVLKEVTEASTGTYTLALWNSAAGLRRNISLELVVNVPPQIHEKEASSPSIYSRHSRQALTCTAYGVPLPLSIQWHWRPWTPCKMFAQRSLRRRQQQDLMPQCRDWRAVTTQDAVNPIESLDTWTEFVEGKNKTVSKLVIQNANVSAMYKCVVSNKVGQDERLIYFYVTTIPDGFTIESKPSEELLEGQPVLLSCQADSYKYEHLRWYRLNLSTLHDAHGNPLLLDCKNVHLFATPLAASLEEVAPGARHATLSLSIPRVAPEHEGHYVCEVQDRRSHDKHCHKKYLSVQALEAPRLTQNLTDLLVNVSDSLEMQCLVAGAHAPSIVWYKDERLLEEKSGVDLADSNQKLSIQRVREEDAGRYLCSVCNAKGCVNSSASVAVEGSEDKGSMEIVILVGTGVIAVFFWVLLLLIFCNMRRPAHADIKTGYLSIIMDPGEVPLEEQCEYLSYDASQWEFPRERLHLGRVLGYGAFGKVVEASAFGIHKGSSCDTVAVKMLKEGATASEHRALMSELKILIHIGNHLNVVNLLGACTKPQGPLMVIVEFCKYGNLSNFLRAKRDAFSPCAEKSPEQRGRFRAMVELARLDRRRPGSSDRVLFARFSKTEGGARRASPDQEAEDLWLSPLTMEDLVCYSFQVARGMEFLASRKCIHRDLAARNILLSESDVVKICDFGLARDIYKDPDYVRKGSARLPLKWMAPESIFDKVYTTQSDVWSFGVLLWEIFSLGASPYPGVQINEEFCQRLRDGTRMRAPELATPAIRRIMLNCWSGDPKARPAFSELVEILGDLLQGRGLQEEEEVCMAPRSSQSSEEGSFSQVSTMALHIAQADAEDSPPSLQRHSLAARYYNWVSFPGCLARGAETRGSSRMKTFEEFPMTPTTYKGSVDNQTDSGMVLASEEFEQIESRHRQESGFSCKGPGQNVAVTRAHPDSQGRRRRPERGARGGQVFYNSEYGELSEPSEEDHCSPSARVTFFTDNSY

Measured: % residual kinase activity

Sequence of Serine/threonine-protein kinase NIM1 (Homo sapiens) (Q8IY84 whole entry): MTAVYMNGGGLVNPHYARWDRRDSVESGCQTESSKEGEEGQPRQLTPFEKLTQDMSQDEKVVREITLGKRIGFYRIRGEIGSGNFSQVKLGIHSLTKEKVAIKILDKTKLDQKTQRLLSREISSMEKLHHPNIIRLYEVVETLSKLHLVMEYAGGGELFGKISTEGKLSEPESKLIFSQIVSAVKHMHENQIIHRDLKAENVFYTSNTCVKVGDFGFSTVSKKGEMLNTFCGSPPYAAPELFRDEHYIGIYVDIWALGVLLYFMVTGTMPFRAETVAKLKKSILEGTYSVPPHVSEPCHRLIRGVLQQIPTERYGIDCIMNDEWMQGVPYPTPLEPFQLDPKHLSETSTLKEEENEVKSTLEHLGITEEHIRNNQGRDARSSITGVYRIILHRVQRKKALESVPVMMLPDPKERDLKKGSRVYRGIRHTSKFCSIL
Sequence of Mitogen-activated protein kinase 14 (Homo sapiens) (Q16539 whole entry, the tested form may be a part): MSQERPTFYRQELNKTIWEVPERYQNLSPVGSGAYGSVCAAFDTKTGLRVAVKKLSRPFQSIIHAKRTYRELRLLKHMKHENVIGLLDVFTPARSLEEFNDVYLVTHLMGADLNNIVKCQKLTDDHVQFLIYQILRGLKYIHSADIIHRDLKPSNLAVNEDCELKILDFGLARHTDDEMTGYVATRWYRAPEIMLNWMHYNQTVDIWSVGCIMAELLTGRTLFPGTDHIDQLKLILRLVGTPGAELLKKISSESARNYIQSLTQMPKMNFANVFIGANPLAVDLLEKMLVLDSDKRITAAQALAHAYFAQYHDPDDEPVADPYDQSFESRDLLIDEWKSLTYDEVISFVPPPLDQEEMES

CN1CCN(c2cnc3c(C4CCN(C(=O)c5ccc(OC(F)(F)F)cc5N)CC4)ncnc3c2)CC1 [BAY-885]
inactive: [1] 108% | [2] 113% | [3] 94% | [4] 115% | [5] 93% | [6] 108% | [7] 101% | [8] 94% | [9] 104% | [10] 120% | [11] 100% | [12] 109% | [13] 116% | [14] 98%
